Experimental data from US4650785A, “Pharmaceutical composition having an excellent absorption property” (Ajinomoto Company Incoporated, priority 1982, dated 1987).
Where a SMILES comes first, the peptide text is derived from it. The star is where a group is joined. Cbz = O=C(OCc1ccccc1)*

What was measured:
[1] = Usefulness as medicine absorption promoter (statement, test not described)
[2] = test system: Female ICR-CD-1 mice; assay: Oral administration of absorption promoter mixed with insulin to mice: decrease in blood glucose and elevation of blood insulin versus control; assay type: in vivo; parameters: Degree of Elevation of Blood Insulin: unit not given here; conditions: oral, mice, vs control group
Description: The absorption promoter samples listed in Table 2 were dissolved or suspended in 0.5% CMC-0.05M tris-HCl buffers (pH: 7.8) and the solutions or suspensions were mixed with aqueous insulin solution. Female ICR-CD-1 mice 5 to 7 weeks old were orally administered predetermined amounts of the mixtures. A predetermined duration later, the percent decrease in blood glucose and the degree of elevation of blood insulin as compared with the control group were measured. The symbol "Z" in the structural formulas in the table represents a benzyloxycarbonyl group. The upper figures in the columns "effectiveness" represent the percent decrease in blood glucose and the lower parenthesized figures indicate the degree of elevation in blood insulin.

[3] = test system: Female CD-1(ICR) Mice; assay: Toxicity studies of phenylalanine derivatives (LD50); assay type: in vivo
From the text: Toxicity Studies of Phenylalanine Derivatives with Oral IN Potentiating Activity in Female CD-1(ICR) Mice are as follows:
Phenylalanine derivatives were suspended in 0.5% CMC.

[4] = sample 6.0 mg/10 g with insulin 2.5 U/10 g body weight, 30 minutes
[5] = sample 6.0 mg/10 g with insulin 2.5 U/10 g body weight, 60 minutes
[6] = female CD-1(ICR) mice, suspended in 0.5% CMC
[7] = sample 1.5 mg/10 g with insulin 2.5 U/10 g body weight, 30 minutes
[8] = sample 1.5 mg/10 g with insulin 2.5 U/10 g body weight, 60 minutes
[9] = sample 3.0 mg/10 g with insulin 2.5 U/10 g body weight, 30 minutes
[10] = sample 3.0 mg/10 g with insulin 2.5 U/10 g body weight, 60 minutes

Structure (SMILES) | Decrease in Blood Glucose (%) [2, 4] | Degree of Elevation of Blood Insulin [2, 4] | Decrease in Blood Glucose (%) [2, 5] | Degree of Elevation of Blood Insulin [2, 5] | LD50 (mg/kg) [3, 6] | LD50 (mg/kg) ([3]; mouse, in vivo) | also measured
CC(=O)N[C@@H](Cc1ccccc1)C(=O)O [N-acetylphenylalanine] | – | – | – | – | – | – | usefulness as the absorption promoter [1]: not useful as the absorption promoter
N[C@@H](Cc1ccccc1)C(=O)O [Phenylalanine] | – | – | – | – | – | – | usefulness as the absorption promoter [1]: not useful as the absorption promoter
O=C(N[C@@H](Cc1ccccc1)C(=O)N[C@@H](Cc1ccc(O)cc1)C(=O)O)OCc1ccccc1 [Sample S-10, N-benzyloxycarbonyl-L-phenylalanyl-L-tyrosine] (Cbz-Phe-Tyr-OH) | 61.5% | 41.9 | 43.4% | 4.85 | > 3,000 mg/kg | – | –
O=C(COc1cccc2ccccc12)N[C@@H](Cc1ccccc1)C(=O)O [Sample S-11, N-[(1-naphthoxy)acetyl]-L-phenylalanine] | 54.0% | 11.8 | 59.7% | 5.07 | – | > 4,000 mg/kg | –
O=C(COc1ccc2ccccc2c1)N[C@@H](Cc1ccccc1)C(=O)O [Sample S-12, N-[(2-naphthoxy)acetyl]-L-phenylalanine] | 50.8% | 6.05 | 66.8% | 5.62 | – | > 4,000 mg/kg | –
O=C(COc1ccc(Cl)cc1)N[C@@H](Cc1ccccc1)C(=O)O [Sample S-13, N-[(4-chlorophenoxy)acetyl]-L-phenylalanine] | – | – | – | – | – | > 3,500 mg/kg | Decrease in Blood Glucose (%) [2, 7]: 31.9%; Degree of Elevation of Blood Insulin [2, 7]: 43.4; Decrease in Blood Glucose (%) [2, 8]: 18.5%; Degree of Elevation of Blood Insulin [2, 8]: 9.82
O=C(N[C@@H](Cc1ccccc1)C(=O)O)OCc1ccccc1 [Sample S-15, N-benzyloxycarbonyl-L-phenylalanine] | – | – | – | – | > 2,750 mg/kg | – | Decrease in Blood Glucose (%) [2, 9]: 37.5%; Degree of Elevation of Blood Insulin [2, 9]: 3.43; Decrease in Blood Glucose (%) [2, 10]: 60.7%; Degree of Elevation of Blood Insulin [2, 10]: 2.36
COc1ccc(COC(=O)N[C@@H](Cc2ccccc2)C(=O)O)cc1 [Sample S-17, N-(4-methoxybenzyloxycarbonyl)-L-phenylalanine] | – | – | – | – | – | – | Decrease in Blood Glucose (%) [2, 9]: 64.8%; Degree of Elevation of Blood Insulin [2, 9]: 14.4; Decrease in Blood Glucose (%) [2, 10]: 50.6%; Degree of Elevation of Blood Insulin [2, 10]: 21.2; LD50 [3, 6]: 750 mg/kg
O=C(N[C@H](Cc1ccccc1)C(=O)O)OCc1ccccc1 [Sample S-18, N-benzyloxycarbonyl-D-phenylalanine] | 52.3% | 6.79 | 67.2% | 10.6 | > 4,000 mg/kg | – | –
